Columns and labels:
Experiment in all cases: relative viability (nuclei count vs DMSO), 5 days (fraction); higher = more cells survive
A-427 = test system: A-427
Summary of the method: (§1)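 The day after seeding in 1536-well plates, lung cancer cell lines were treated by pin tool with a single drug, or with a fixed anchor-drug dose together with five library-drug doses (not always all listed) in √10 steps. After 5 days, a combined fix-and-stain solution (final 0.05% Triton X-100, 1% formaldehyde, 1 ug/ml Hoechst) was added. Nuclei counted on 4× images gave relative viability as treated counts over vehicle counts, reported as the median of duplicate plates.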

ABC-1 = test system: ABC-1
Summary of the method: as §1

COR-L23 = test system: COR-L23
Summary of the method: as §1

EMC-BAC-2 = test system: EMC-BAC-2
Summary of the method: as §1

HARA = test system: HARA
Summary of the method: as §1

HOP-62 = test system: HOP-62
Summary of the method: as §1

LK-2 = test system: LK-2
Summary of the method: as §1

LU99A = test system: LU99A
Summary of the method: as §1

LXF-289 = test system: LXF-289
Summary of the method: as §1

NCI-H1792 = test system: NCI-H1792
Summary of the method: as §1

NCI-H1793 = test system: NCI-H1793
Summary of the method: as §1

NCI-H1944 = test system: NCI-H1944
Summary of the method: as §1

NCI-H1993 = test system: NCI-H1993
Summary of the method: as §1

NCI-H2009 = test system: NCI-H2009
Summary of the method: as §1

NCI-H2170 = test system: NCI-H2170
Summary of the method: as §1

NCI-H2228 = test system: NCI-H2228
Summary of the method: as §1

NCI-H3122 = test system: NCI-H3122
Summary of the method: as §1

NCI-H596 = test system: NCI-H596
Summary of the method: as §1

NCI-H727 = test system: NCI-H727
Summary of the method: as §1

PC-3 [JPC-3] = test system: PC-3 [JPC-3]
Summary of the method: as §1

SK-LU-1 = test system: SK-LU-1
Summary of the method: as §1

SK-MES-1 = test system: SK-MES-1
Summary of the method: as §1

SW 1573 = test system: SW 1573
Summary of the method: as §1

SW 900 = test system: SW 900
Summary of the method: as §1

C[C@@H]1CN(CC(=O)Nc2ccc3c(c2)Cc2cccc(-c4cc(=O)cc(N5CCOCC5)o4)c2S3)C[C@H](C)O1 + Cc1nc(Nc2ncc(C(=O)Nc3c(C)cccc3Cl)s2)cc(N2CCN(CCO)CC2)n1 [Dasatinib] (partner 0.075 µM)
relative viability (A-427; first compound 0.04 µM): 0.737 | relative viability (A-427; first compound 0.1265 µM): 0.719 | relative viability (A-427; first compound 0.4 µM): 0.729 | relative viability (A-427; first compound 4 µM): 0.669 | relative viability (ABC-1; first compound 0.1265 µM): 0.571 | relative viability (ABC-1; first compound 0.4 µM): 0.447 | relative viability (ABC-1; first compound 4 µM): 0.504 | relative viability (COR-L23; first compound 0.04 µM): 0.588 | relative viability (COR-L23; first compound 0.1265 µM): 0.46 | relative viability (COR-L23; first compound 0.4 µM): 0.593 | relative viability (COR-L23; first compound 4 µM): 0.369 | relative viability (EMC-BAC-2; first compound 0.04 µM): 0.386 | relative viability (EMC-BAC-2; first compound 0.1265 µM): 0.34 | relative viability (EMC-BAC-2; first compound 0.4 µM): 0.394 | relative viability (EMC-BAC-2; first compound 4 µM): 0.413 | relative viability (HARA; first compound 0.1265 µM): 0.204 | relative viability (HARA; first compound 0.4 µM): 0.34 | relative viability (HARA; first compound 4 µM): 0.258 | relative viability (HOP-62; first compound 0.04 µM): 0.664 | relative viability (HOP-62; first compound 0.1265 µM): 0.57 | relative viability (HOP-62; first compound 0.4 µM): 0.687 | relative viability (HOP-62; first compound 4 µM): 0.518 | relative viability (LK-2; first compound 0.1265 µM): 0.301 | relative viability (LK-2; first compound 0.4 µM): 0.336 | relative viability (LK-2; first compound 4 µM): 0.437 | relative viability (LU99A; first compound 0.04 µM): 0.523 | relative viability (LU99A; first compound 0.1265 µM): 0.491 | relative viability (LU99A; first compound 0.4 µM): 0.488 | relative viability (LU99A; first compound 4 µM): 0.523 | relative viability (LXF-289; first compound 0.04 µM): 0.185 | relative viability (LXF-289; first compound 0.1265 µM): 0.223 | relative viability (LXF-289; first compound 0.4 µM): 0.203 | relative viability (LXF-289; first compound 4 µM): 0.232 | relative viability (NCI-H1792; first compound 0.04 µM): 0.74 | relative viability (NCI-H1792; first compound 0.1265 µM): 0.684 | relative viability (NCI-H1792; first compound 0.4 µM): 0.788 | relative viability (NCI-H1792; first compound 4 µM): 0.72 | relative viability (NCI-H1793; first compound 0.04 µM): 0.403 | relative viability (NCI-H1793; first compound 0.1265 µM): 0.373 | relative viability (NCI-H1793; first compound 0.4 µM): 0.414 | relative viability (NCI-H1793; first compound 4 µM): 0.342 | relative viability (NCI-H1944; first compound 0.04 µM): 0.21 | relative viability (NCI-H1944; first compound 0.1265 µM): 0.236 | relative viability (NCI-H1944; first compound 0.4 µM): 0.263 | relative viability (NCI-H1944; first compound 4 µM): 0.264 | relative viability (NCI-H1993; first compound 0.04 µM): 0.643 | relative viability (NCI-H1993; first compound 0.1265 µM): 0.626 | relative viability (NCI-H1993; first compound 0.4 µM): 0.556 | relative viability (NCI-H1993; first compound 4 µM): 0.641 | relative viability (NCI-H2009; first compound 0.04 µM): 0.383 | relative viability (NCI-H2009; first compound 0.1265 µM): 0.29 | relative viability (NCI-H2009; first compound 0.4 µM): 0.305 | relative viability (NCI-H2009; first compound 4 µM): 0.155 | relative viability (NCI-H2170; first compound 0.04 µM): 0.569 | relative viability (NCI-H2170; first compound 0.1265 µM): 0.581 | relative viability (NCI-H2170; first compound 0.4 µM): 0.711 | relative viability (NCI-H2170; first compound 4 µM): 0.57 | relative viability (NCI-H2228; first compound 0.04 µM): 0.595 | relative viability (NCI-H2228; first compound 0.1265 µM): 0.498 | relative viability (NCI-H2228; first compound 0.4 µM): 0.423 | relative viability (NCI-H2228; first compound 4 µM): 0.383 | relative viability (NCI-H3122; first compound 0.04 µM): 0.797 | relative viability (NCI-H3122; first compound 0.1265 µM): 0.838 | relative viability (NCI-H3122; first compound 0.4 µM): 0.827 | relative viability (NCI-H3122; first compound 4 µM): 0.844 | relative viability (NCI-H596; first compound 0.04 µM): 0.568 | relative viability (NCI-H596; first compound 0.1265 µM): 0.512 | relative viability (NCI-H596; first compound 0.4 µM): 0.572 | relative viability (NCI-H596; first compound 4 µM): 0.484 | relative viability (NCI-H727; first compound 0.04 µM): 0.361 | relative viability (NCI-H727; first compound 0.1265 µM): 0.368 | relative viability (NCI-H727; first compound 0.4 µM): 0.378 | relative viability (NCI-H727; first compound 4 µM): 0.286 | relative viability (PC-3 [JPC-3]; first compound 0.04 µM): 0.983 | relative viability (PC-3 [JPC-3]; first compound 0.1265 µM): 1.06 | relative viability (PC-3 [JPC-3]; first compound 0.4 µM): 1.01 | relative viability (PC-3 [JPC-3]; first compound 4 µM): 0.918 | relative viability (SK-LU-1; first compound 0.04 µM): 0.206 | relative viability (SK-LU-1; first compound 0.1265 µM): 0.203 | relative viability (SK-LU-1; first compound 0.4 µM): 0.171 | relative viability (SK-LU-1; first compound 4 µM): 0.15 | relative viability (SK-MES-1; first compound 0.04 µM): 0.444 | relative viability (SK-MES-1; first compound 0.1265 µM): 0.353 | relative viability (SK-MES-1; first compound 0.4 µM): 0.398 | relative viability (SK-MES-1; first compound 4 µM): 0.263 | relative viability (SW 1573; first compound 0.04 µM): 0.736 | relative viability (SW 1573; first compound 0.1265 µM): 0.613 | relative viability (SW 1573; first compound 0.4 µM): 0.515 | relative viability (SW 1573; first compound 4 µM): 0.355 | relative viability (SW 900; first compound 0.04 µM): 0.509 | relative viability (SW 900; first compound 0.1265 µM): 0.801 | relative viability (SW 900; first compound 0.4 µM): 0.66 | relative viability (SW 900; first compound 4 µM): 0.375
